How the values were obtained:
[1] = system: NHL cell lines (Granta-519, HBL-2, Jeko-1, Rec-1, Z-138, Karpas-422); experiment: Trypan blue exclusion viability/proliferation test, NHL cell line panel; type: cell-based; conditions: chemotherapeutic alone (Fludarabine 0.25 μg/ml; Mitoxantrone 0.25 and 0.5 μg/ml), across cell lines
Source text: The following Non-Hodgkin Lymphoma (NHL) cell lines were used in the experiments: Granta-519, HBL-2, Rec-1 and Z-138 as Mantle Cell Lymphoma cell lines and a Karpas-422 as a Diffuse Large B-Cell Lymphoma cell line. All cell lines were obtained from the “Deutsche Sammlung von Mikroorganismen and Zellkulturen GmbH” (DSMZ), Braunschweig, Germany. […] Granta 519, HBL-2, JeKo-1, Rec-1 and Z-138 were cultivated in RPMI-1640 medium with 10% heat-inactivated FCS and 1% Penicillin/Streptomycin. The density of viable cells was determined with BeckmanCoulter ViCell™ Cell Viability Analyzer on the basis of the trypan blue cell exclusion method. The test is based on the principle that viable cells have an intact cell membrane that blocks the uptake of trypan blue whereas dead cells have lost this ability. Therefore viable cells have a transparent cytoplasm whereas dead cells can be identified due to their blue cytoplasm. […] Trypan-blue exclusion tests were used to analyze cell viability. […] These concentrations were determined in pre-experiments on MCL cells • 1. 0.25 μg/ml Fludarabine • 2. 0.25 and 0.5 μg/ml Mitoxantrone 1 ml samples were taken at 0 h, 24 h, 48 h, 72 h every day and the number of viable cells was determined. […] Experiments were independently performed three times.

[2] = system: human Z138 mantle cell lymphoma xenograft; experiment: Tumor growth inhibition study in vivo, Z138 xenograft; parameters: species or system SCID beige mice; conditions: day 36 after tumor cell inoculation; antibodies 1 mg/kg i.v. day 22 and 29; fludarabine 40 mg/kg i.p. day 22-25
Experimental: Antibody buffer included histidine, trehalose and polysorbate 20.
Cells were co-injected with Matrigel.
Experimental study protocol was reviewed and approved by local government. […] Continuous health monitoring was carried out on regular basis. Diet food (Provimi Kliba 3337) and water (acidified pH 2.5-3) were provided ad libitum.
Animals were controlled daily for clinical symptoms and detection of adverse effects.
The corresponding vehicle was administered on the same days.

Granta-519 MCL cells = experiment: Trypan blue exclusion viability/proliferation test, Granta-519; type: cell-based; conditions: mono-exposure 1 μg/ml
Experimental: (§1) The following Non-Hodgkin Lymphoma (NHL) cell lines were used in the experiments: Granta-519, HBL-2, Rec-1 and Z-138 as Mantle Cell Lymphoma cell lines and a Karpas-422 as a Diffuse Large B-Cell Lymphoma cell line. All cell lines were obtained from the “Deutsche Sammlung von Mikroorganismen and Zellkulturen GmbH” (DSMZ), Braunschweig, Germany.
(§2) All cell lines were stored according to standard procedures and cultivated at 37° C., 5% CO2- and 95% relative humidity in a CO2 incubator. Granta 519, HBL-2, JeKo-1, Rec-1 and Z-138 were cultivated in RPMI-1640 medium with 10% heat-inactivated FCS and 1% Penicillin/Streptomycin.
(§3) The density of viable cells was determined with BeckmanCoulter ViCell™ Cell Viability Analyzer on the basis of the trypan blue cell exclusion method. The test is based on the principle that viable cells have an intact cell membrane that blocks the uptake of trypan blue whereas dead cells have lost this ability. Therefore viable cells have a transparent cytoplasm whereas dead cells can be identified due to their blue cytoplasm.
(§4) Trypan-blue exclusion tests were used to analyze cell viability.
(§5) These concentrations were determined in pre-experiments on MCL cells • 1. 0.25 μg/ml Fludarabine • 2. 0.25 and 0.5 μg/ml Mitoxantrone
(§6) 1 ml samples were taken at 0 h, 24 h, 48 h, 72 h every day and the number of viable cells was determined. […]

Rec-1 MCL cells = experiment: Trypan blue exclusion viability/proliferation test, Rec-1; type: cell-based; conditions: mono-exposure 1 μg/ml
Experimental: as §1, §2, §3, §4, §5, §6

HBL-2 MCL cells = experiment: Trypan blue exclusion viability/proliferation test, HBL-2; type: cell-based; conditions: mono-exposure 1 μg/ml
Experimental: as §1, §2, §3, §4, §5, §6

Jeko-1 MCL cells = experiment: Trypan blue exclusion viability/proliferation test, Jeko-1; type: cell-based; conditions: mono-exposure 1 μg/ml
Experimental: as §2, §3, §4, §5
1 ml samples were taken at 0 h, 24 h, 48 h, 72 h every day and the number of viable cells was determined. The reduction of cell proliferation was used for a fractional product calculation (synergism >0.1; additive effect −0.1<x<0.1; antagonism <−0.1). Experiments were independently performed three times.

Row | Molecule | cell reduction [1] | tumor growth inhibition compared to the control group [2] | cell reduction (Granta-519 MCL cells) | cell reduction (Rec-1 MCL cells) | cell reduction (HBL-2 MCL cells) | cell reduction (Jeko-1 MCL cells)
1 | O=C1c2c(O)ccc(O)c2C(=O)c2c(NCCNCCO)ccc(NCCNCCO)c21 [Mitoxantrone, 1,4-dihydroxy-5,8-bis[2-(2-hydroxyethylamino)ethylamino]-anthracene-9,10-dione] | 80-95% |  |  |  |  | 
2 | B-HH6-B-KV1 GE: afucosylated type II anti-CD20 antibody; humanized B-Ly1 IgG1, VH SEQ ID NO: 7 (B-HH6), VL SEQ ID NO: 20 (B-KV1), glycoengineered |  | 86% | 65-75% | 30-45% | 20-30% | 5%

Source: US20150274834A1, “COMBINATION THERAPY OF AN AFUCOSYLATED CD20 ANTIBODY WITH FLUDARABINE AND/OR MITOXANTRONE” (Roche Glycart AG, priority 2009, published 2015)
